Patent publication US8410302B2, “Methoxyimino compounds and fungicide composition comprising same” (Kyung Nong Corporation, priority 2007, dated 2013)
Like-named read-outs stand apart in the source and are kept apart here.

Key:
[1] = test system: Pyricularia oryzae Carvara KA301; assay: whole plant or invertebrate; assay type: in vivo; settings: for RCB control value (C.V.): rice blast; for pest or weed control at 2 ppm / pest or weed control at 10 ppm / pest or weed control at 50 ppm / pest or weed control at 100 ppm: Pyricularia oryzae, read-out: RCB control value (C.V.)
Botrytis cinerae = assay: Fungicidal activity against cucumber gray mold rot (CGM) disease, control value; assay type: in vivo; settings: for pest or weed control at 100 ppm / pest or weed control at 50 ppm: Botrytis, read-out: CGM control value (C.V.)
Phytophthora infestans = assay: whole plant or invertebrate; assay type: in vivo; settings: for pest or weed control at 2 ppm / pest or weed control at 10 ppm / pest or weed control at 50 ppm / pest or weed control at 100 ppm: Phytophthora infestans, in Solanum lycopersicum, read-out: TLB control value (C.V.)
Puccinia recondita = assay: Fungicidal activity against wheat leaf rust (WLR) disease, control value; assay type: in vivo; settings: for pest or weed control at 2 ppm / pest or weed control at 10 ppm / pest or weed control at 50 ppm / pest or weed control at 100 ppm: read-out: WLR control value (C.V.)
Erysiphae graminis = assay: Fungicidal activity against barley powdery mildew (BPM) disease, control value; assay type: in vivo; settings: for pest or weed control at 2 ppm / pest or weed control at 10 ppm / pest or weed control at 50 ppm / pest or weed control at 100 ppm: 168 h, read-out: BPM control value (C.V.)
Rhizoctonia solani AG-1 = assay: Fungicidal activity against rice sheath blight (RSB) disease, control value; settings: for pest or weed control at 100 ppm / pest or weed control at 2 ppm / pest or weed control at 10 ppm / pest or weed control at 50 ppm: Rhizoctonia solani, AG1, in Oryza sativa, read-out: RSB control value (C.V.)
[2] = 100 ppm, cucumber gray mold rot
[3] = Hordeum vulgare, barley powdery mildew
[4] = Hordeum vulgare, 100 ppm, barley powdery mildew

Structure (SMILES)	pest or weed control at 2 ppm [1] [%]	pest or weed control at 10 ppm [1] [%]	pest or weed control at 50 ppm [1] [%]	pest or weed control at 100 ppm [1] [%]	pest or weed control at 100 ppm (Botrytis cinerae; [2]) [%]	pest or weed control at 2 ppm (Phytophthora infestans) [%]	pest or weed control at 10 ppm (Phytophthora infestans) [%]	pest or weed control at 50 ppm (Phytophthora infestans) [%]	pest or weed control at 100 ppm (Phytophthora infestans) [%]	pest or weed control at 2 ppm (Puccinia recondita; wheat leaf rust) [%]	pest or weed control at 10 ppm (Puccinia recondita; wheat leaf rust) [%]	pest or weed control at 50 ppm (Puccinia recondita; 50 ppm, wheat leaf rust) [%]	pest or weed control at 100 ppm (Puccinia recondita; 100 ppm, wheat leaf rust) [%]	pest or weed control at 2 ppm (Erysiphae graminis; [3]) [%]	pest or weed control at 10 ppm (Erysiphae graminis; [3]) [%]	pest or weed control at 100 ppm (Erysiphae graminis; [4]) [%]	pest or weed control at 100 ppm (Rhizoctonia solani AG-1) [%]	pest or weed control at 2 ppm (Rhizoctonia solani AG-1) [%]	pest or weed control at 10 ppm (Rhizoctonia solani AG-1) [%]	pest or weed control at 50 ppm (Rhizoctonia solani AG-1) [%]	further results
CO/N=C(/C(=O)OC)c1ccccc1CON=C(C)c1ccc(C=C(F)Cl)cc1 [Example 33, methyl-(E)-2-[[[[[2-[4-(2-chloro-2-fluorovinyl)phenyl](1-methyl)methylidene]amino]oxy]methyl]phenyl]-2-methoxyiminoacetate]	–	–	–	–	–	–	–	–	–	–	–	–	–	–	–	–	–	–	–	–	RCB control value (C.V.) ([1]; 50 ppm): 70%; RCB control value (C.V.) ([1]; 100 ppm): 95%; CGM control value (C.V.) (Botrytis cinerae; [2]): 15%; TLB control value (C.V.) (Phytophthora infestans; 100 ppm, tomato late blight): 60%; WLR control value (C.V.) (Puccinia recondita; 50 ppm, wheat leaf rust): 40%; WLR control value (C.V.) (Puccinia recondita; 100 ppm, wheat leaf rust): 90%; BPM control value (C.V.) (Erysiphae graminis; 100 ppm, barley powdery mildew): 80%; RSB control value (C.V.) (Rhizoctonia solani AG-1; 100 ppm, rice sheath blight): 67%
CO/N=C(/C(=O)OC)c1ccccc1COc1cccc(C=C(Cl)Cl)c1 [Example 1, methyl-(E)-2-(2-((3-(2,2-dichlorovinyl)phenoxy)methyl)phenyl)-2-methoxyiminoacetate]	13	50	92	100	29	80	92	100	100	98	100	100	100	100	100	100	45	–	–	–	pest or weed control at 50 ppm (Erysiphae graminis; [3]): 100%
CO/N=C(/C(=O)OC)c1ccccc1COc1cc(Br)ccc1C=C(Cl)Cl [Example 61, methyl-(E)-2-(2-((5-bromo-2-(2,2-dichlorovinyl)phenoxy)methyl)phenyl)-2-methoxyiminoacetate]	99	100	100	100	–	99	100	100	100	–	–	–	–	–	–	–	100	95	100	100	pest or weed control at 50 ppm (Botrytis cinerae): 40%; pest or weed control at 100 ppm (Botrytis cinerae; 100 ppm): 85%; pest or weed control at 2 ppm (Puccinia recondita; Puccinia recondita): 100%; pest or weed control at 10 ppm (Puccinia recondita; Puccinia recondita): 100%; pest or weed control at 50 ppm (Puccinia recondita; Puccinia recondita, 50 ppm): 100%; pest or weed control at 100 ppm (Puccinia recondita; Puccinia recondita, 100 ppm): 100%; pest or weed control at 2 ppm (Erysiphae graminis): 100%; pest or weed control at 10 ppm (Erysiphae graminis): 100%; pest or weed control at 50 ppm (Erysiphae graminis): 100%; pest or weed control at 100 ppm (Erysiphae graminis; 100 ppm): 100%
CNC(=O)/C(=N/OC)c1ccccc1COc1c(C)cccc1C=C(Br)Br [Example 74, (E)-2-(2-((2-(2,2-dibromovinyl)-6-methylphenoxy)methyl)phenyl)-2-methoxyimino-N-methylacetamide]	10	90	100	100	–	–	80	90	100	–	–	–	–	–	–	–	100	67	80	90	pest or weed control at 100 ppm (Botrytis cinerae; 100 ppm): 35%; pest or weed control at 2 ppm (Puccinia recondita; Puccinia recondita): 90%; pest or weed control at 10 ppm (Puccinia recondita; Puccinia recondita): 99%; pest or weed control at 50 ppm (Puccinia recondita; Puccinia recondita, 50 ppm): 100%; pest or weed control at 100 ppm (Puccinia recondita; Puccinia recondita, 100 ppm): 100%; pest or weed control at 2 ppm (Erysiphae graminis): 92%; pest or weed control at 10 ppm (Erysiphae graminis): 100%; pest or weed control at 50 ppm (Erysiphae graminis): 100%; pest or weed control at 100 ppm (Erysiphae graminis; 100 ppm): 100%
CNC(=O)/C(=N/OC)c1ccccc1COc1ccc(C=C(Cl)Cl)cc1C [Example 42, (E)-2-(2-((4-(2,2-dichlorovinyl)-2-methylphenoxy)methyl)phenyl)-2-methoxyimino-N-methylacetamide]	100	100	100	100	0	–	–	70	95	100	100	100	100	100	100	100	100	100	100	100	pest or weed control at 50 ppm (Erysiphae graminis; [3]): 100%
CO/N=C(/C(=O)OC)c1ccccc1COc1ccc(C=C(Cl)Cl)cc1C [Example 41, methyl-(E)-2-(2-((4-(2,2-dichlorovinyl)-2-methylphenoxy)methyl)phenyl)-2-methoxyiminoacetate]	100	100	100	100	90	100	100	100	100	100	100	100	100	100	100	100	100	100	100	100	pest or weed control at 50 ppm (Botrytis cinerae; cucumber gray mold rot): 75%; pest or weed control at 50 ppm (Erysiphae graminis; [3]): 100%
CNC(=O)/C(=N/OC)c1ccccc1COc1cc(Br)ccc1C=C(Cl)Cl [Example 62, (E)-2-(2-((5-bromo-2-(2,2-dichlorovinyl)phenoxy)methyl)phenyl)-2-methoxyimino-N-methylacetamide]	90	99	100	100	–	99	100	100	100	–	–	–	–	–	–	–	100	93	100	100	pest or weed control at 50 ppm (Botrytis cinerae): 30%; pest or weed control at 100 ppm (Botrytis cinerae; 100 ppm): 85%; pest or weed control at 2 ppm (Puccinia recondita; Puccinia recondita): 100%; pest or weed control at 10 ppm (Puccinia recondita; Puccinia recondita): 100%; pest or weed control at 50 ppm (Puccinia recondita; Puccinia recondita, 50 ppm): 100%; pest or weed control at 100 ppm (Puccinia recondita; Puccinia recondita, 100 ppm): 100%; pest or weed control at 2 ppm (Erysiphae graminis): 99%; pest or weed control at 10 ppm (Erysiphae graminis): 100%; pest or weed control at 50 ppm (Erysiphae graminis): 100%; pest or weed control at 100 ppm (Erysiphae graminis; 100 ppm): 100%
CNC(=O)/C(=N/OC)c1ccccc1COc1cccc(C=C(Br)Br)c1 [Example 6, (E)-2-(2-((3-(2,2-dibromovinyl)phenoxy)methyl)phenyl)-2-methoxyimino-N-methylacetamide]	98	100	100	100	60	–	–	–	50	0	35	95	98	0	30	97	100	30	90	100	pest or weed control at 50 ppm (Erysiphae graminis; [3]): 90%
CO/N=C(/C(=O)OC)c1ccccc1COc1ccc(C=C(F)Cl)cc1 [Example 13, methyl-(2E)-2-(2-((4-(2-chloro-2-fluorovinyl)phenoxy)methyl)phenyl)-2-methoxyiminoacetate]	–	–	70	95	0	–	–	–	60	–	–	40	90	–	–	75	67	–	–	–	–
CNC(=O)/C(=N/OC)c1ccccc1COc1ccc(C=C(Cl)Cl)cc1 [Example 4, (E)-2-(2-((4-(2,2-dichlorovinyl)phenoxy)methyl)phenyl)-2-methoxyimino-N-methylacetamide]	100	100	100	100	75	100	100	100	100	100	100	100	100	100	100	100	100	90	98	100	pest or weed control at 50 ppm (Erysiphae graminis; [3]): 100%
